According to paper PMC3001719, “The heme sensing response regulator HssR in Staphylococcus aureus but not the homologous RR23 in Listeria monocytogenes modulates susceptibility to the antimicrobial peptide plectasin” (BMC Microbiology, 2010):

Tests used:
[1] = test system: L. monocytogenes wild type; assay: Spontaneous mutation control on plectasin plates; format: cell-based, Listeria monocytogenes; conditions: L. monocytogenes wild type grown on BHI with 4, 5 or 10 fold MIC of plectasin
Protocol: The transposon mutant libraries were screened on agar plates for increased resistance to plectasin as compared to wild-type sensitivity. Wild-type sensitivity was determined by plating approx. 1.0 × 10^7 CFU/ml on TSB agar containing plectasin (S. aureus) and approx. […] Plates were incubated at 37°C for 3 days and inspected for growth. […]

[2] = test system: hrtB and hssR expression in wild type S. aureus; assay: Expression of hrtB and hssR, northern blot and quantitative real-time PCR; format: cell-based, Staphylococcus aureus; conditions: plectasin 35 μg/ml, 10 and 90 minutes, northern blot and quantitative real-time PCR (P > 0.05)
Protocol: Wild type S. aureus and the hssR mutant were grown to an absorbance at 600 nm of 0.45 ± 0.1, samples were withdrawn for the isolation of RNA. Plectasin (35 μg/ml) was added to the growing culture, and after 10 and 90 minutes samples were also withdrawn. Cells were quickly cooled and lysed mechanically using the FastPrep machine (Bio101; Q-biogene), and RNA was isolated by the RNeasy kit (QIAGEN, Valencia, Calif.) according to the manufacturer's instructions. Northern Blotting: RNA was transferred to a nylon membrane (Boehringer Mannheim) by capillary blotting as previously described. Hybridization was performed using gene-specific probes that had been labelled with [^32P]dCTP using the Ready-to-Go DNA-labelling beads from Amersham Biosciences. Primers for probes amplifying hrtB and hssR: hrtB-1F:(5'[…]3'), hrtB-2R: (5'[…]3'), hssR-1F: (5'[…]3'), hssR-2R:(5' […]3'). All steps were repeated in two independent experiments giving similar results. Quantitative RT-PCR: RNA was treated with DNase and RevertAid™ H Minus first strand cDNA synthesis Kit (Fermentas). […] Statistical analysis on QRTPCR results using GraphPad prism5, 1Way Anova with Dunnett's Multiple comparison test (GraphPad Software, Inc) determined changes in expression comparing time 0 to time 10 minutes or 90 minutes.

Structure (SMILES): CC[C@H](C)[C@@H]1NC(=O)[C@H](CO)NC(=O)[C@H](CCCCN)NC(=O)[C@@H]2CSSC[C@@H](C(=O)N[C@@H](Cc3ccc(O)cc3)C(=O)O)NC(=O)[C@H](CCCCN)NC(=O)[C@@H]3CSSC[C@H](NC(=O)[C@H](CCC(N)=O)NC(=O)[C@H](CCSC)NC(=O)[C@H](CC(=O)O)NC(=O)[C@H](CC(=O)O)NC(=O)[C@H](CCC(=O)O)NC(=O)[C@H](CC(=O)O)NC(=O)[C@H](Cc4c[nH]c5ccccc45)NC(=O)[C@@H]4CCCN4C(=O)CNC(=O)[C@H](CC(N)=O)NC(=O)[C@@H](NC(=O)CNC(=O)[C@H](Cc4ccccc4)NC(=O)CN)CSSC[C@H](NC(=O)[C@H](Cc4ccc(O)cc4)NC(=O)CNC(=O)CNC(=O)[C@H](CCCCN)NC(=O)[C@H](Cc4ccc(O)cc4)NC(=O)CNC(=O)[C@H](CCCCN)NC1=O)C(=O)N[C@@H](C)C(=O)N[C@@H](CCCCN)C(=O)NCC(=O)NCC(=O)N[C@@H](Cc1ccccc1)C(=O)N[C@@H](C(C)C)C(=O)N3)C(=O)N[C@@H](Cc1c[nH]cn1)C(=O)N[C@@H](CC(N)=O)C(=O)N[C@@H](Cc1c[nH]cn1)C(=O)N2 [plectasin]
- Spontaneous mutations leading to changes in sensitivity [1]: no spontaneous mutations
- Expression of hrtB and hssR [2]: no change of expression
